This is an account of results in patent US4940789A, “10,11-dihydro-5-alkyl-12-substituted-10,5-(iminomethano)-5H-d ibenzo[a,d]cycloheptenes as neuroprotectant agents” (priority 1989, dated 1990).

Series [1] is described as follows: Traction reflex deficit (ataxia) in mice. Conditions: mouse, in vivo, ip, I.P., read-out: TD50 - Traction Reflex Deficit, I.P. (dose which produced the deficit in 50% of animals tested). An excerpt: In fact, the separation between a compounds's NMDA-antagonist activity and ataxic activity (often expressed as an "efficacy ratio" of the ED50 's of these two activities) has been extensively used to evaluate its therapeutic usefulness versus its liabilities.
^@ As measured in mice. Defined as the dose which produced the defici

The subject of series [2] is NMDA-induced lethality. The series is described as follows: NMDA-induced lethality in mice (survival; standard experimental test procedure). Particulars: for ED50: Mus musculus, 0.5 h; for ED50 / ED50 Inhibition of NMDA-Induced Lethality, I.P. (dose required to produce 50% survival rate): NMDA 195 mg/kg i.p., 30 min pretreatment; for Percent of animals which survived at the dose indicated (NMDA-induced lethality): I.P.; for IP/PO Ratio: ED50 inhibition of NMDA-induced lethality, I.P. over P.O.; for Relative potency, antagonism of NMDA-induced lethality vs ataxia (in words): traction reflex deficit model. In kind it is in vivo, male Swiss-albino mice (CD-1 strain). As to the method: The mice were pretreated with the representative test compounds followed thirty minutes later with NMDA (195 mg/kg, i.p., the ED90 dose for generalized myoclonus). The mice were then observed for 30 minutes, noting the latency of onset of generalized myoclonus (uncontrollable hind leg scratching or limbs and/or torso muscle jerking with loss of righting reflex) and death. From the latter, the ED50 for survival is determined. In this standard experimental test procedure, the specific compounds tested and their activity, which representatively establish the activity for all the compounds herein, is presented in Table I as follows: […]

For series [3], the system named is high-affinity PCP binding site in the NMDA-associated ion channel. Particulars: result in words; cited from earlier work.
The conditions of series [4]: result in words; cited from earlier work.
For series [5], the system named is cell death in cerebral ischemia models. Conditions: result in words; cited from earlier work.
The mark [6] stands for this setting: ip, intraperitoneal injection, read-out: ED50 Inhibition of NMDA-Induced Lethality, I.P. (dose required to produce 50% survival rate).

The term TD50 denotes the dose at which the toxic effect under study appears in half of the subjects. As usually defined, the ED50 is the dose that gives a 50% effect, or the effect in half of the subjects.

Read-outs that look alike come from different tables or passages of the source.

Consider `CC12CN(CCc3ccncc3)C(Cc3ccccc31)c1ccccc12` (stereo not shown) [Example 3, 10,11-Dihydro-5-methyl-12-[2-(4-pyridinyl)ethyl]10,5-(iminomethano)-5H-dibenzo[a,d]cycloheptene], for which the TD50 in series [1] stood at 83 mg/kg. The ED50 in series [2] (setting [6]) amounted to 18 mg/kg.
Consider `CC(=O)N1CC2(C)c3ccccc3CC1c1ccccc12` (stereo not shown) [Example 11, 10,11-Dihydro-5-methyl-10,5-(iminomethano)-5H-dibenzo[a,d]cycloheptene-12-acetamide], for which, in series [2] (at 10 mg/kg), the “Percent of animals which survived at the dose indicated (NMDA-induced lethality)” value (“Percent of animals which survived” for short) is given as 10%.
As to `COc1ccc2c(c1)[C@]13CCCC[C@@H]1[C@H](C2)N(C)CC3` [Dextromethorphan, reference compound], the TD50 in series [1] came out at 45 mg/kg. Further, in series [2] (setting [6]), the ED50 came to 21 mg/kg.
Regarding `CN1CC2(C)c3ccccc3CC1c1ccccc12` (stereo not shown) [Example 1, 10,11-Dihydro-5,12-dimethyl-10,5-(iminomethano)-5H-dibenzo[a,d]cycloheptene], the TD50 in series [1] stood at 13 mg/kg. Besides, the ED50 in series [2] (setting [6]) is 3.1 mg/kg.
As to `C[C@]12N[C@H](Cc3ccccc31)c1ccccc12` [MK-801, reference compound], the TD50 in series [1] was 0.17 mg/kg. Moreover, in series [2], the “IP/PO Ratio” value stood at 0.58 and the “Relative potency, antagonism of NMDA-induced lethality vs ataxia (in words)” value is on record as “no separation”. Moreover, the ED50 in series [2] (oral administration, read-out: ED50 Inhibition of NMDA-Induced Lethality, P.O. (dose required to produce 50% survival rate)) was 0.32 mg/kg. In addition, in series [2] (setting [6]), the ED50 came out at 0.19 mg/kg. Besides, the “Competition for the high-affinity PCP binding site” value in series [3] was “competes for the high-affinity PCP binding site”. In series [4], the “Generalization for PCP in drug discrimination” value was “generalizes for PCP”. Further, the “Protection against cell death in cerebral ischemia models” value in series [5] was “protects against cell death in cerebral ischemia models”.
On to `CC12CN(CCc3cnccn3)C(Cc3ccccc31)c1ccccc12` (stereo not shown) [Example 4, 10,11-Dihydro-5-methyl-12-(2-pyrazinylethyl)-10,5-(iminomethano)-5H-dibenzo-cycloheptene], for which the TD50 in series [1] came to 30 mg/kg. Moreover, the ED50 in series [2] (setting [6]) amounted to 12 mg/kg.
`CC(C)N1CC2(C)c3ccccc3CC1c1ccccc12` (stereo not shown) [Example 10, 10,11-Dihydro-5-methyl-12-(2-propyl)-10,5-(iminomethano)-5H-dibenzo[a,d]cycloheptene]: the “Percent of animals which survived” value in series [2] (at 10 mg/kg) came out at 100%.
Consider `CN1CC[C@@]23CCCC[C@@H]2[C@@H]1Cc1ccc(O)cc13` [Dextrorphan, dextrorphan, reference compound], for which the TD50 in series [1] amounted to 29 mg/kg. Also, the “Efficacy ratio for antagonizing NMDA-induced lethality over ataxia (in words)” value in series [2] (comparison with reference NMDA antagonists) was “essentially the same as that for dextromethorphan”. For the same compound, the “ED50 Inhibition of NMDA-Induced Lethality, I.P. (dose required to produce 50% survival rate)” value in series [2] (intraperitoneal injection) is reported as 13 mg/kg.
Take `CC12CN(Cc3ccccn3)C(Cc3ccccc31)c1ccccc12` (stereo not shown) [Example 6, 10,11-Dihydro-5-methyl-12-(2-pyridinylmethyl)-10,5-(iminomethano)-5H-dibenzo[a,d]cycloheptene]: the “Percent of animals which survived” value in series [2] (at 20 mg/kg) came out at 66%.
Regarding `Cc1cccc(CCN2CC3(C)c4ccccc4CC2c2ccccc23)n1` (stereo not shown) [Example 8, 10,11-Dihydro-5-methyl-12-[2-(6-methyl-2-pyridinyl)ethyl]-10,5-(iminomethano)-5H-dibenzo[a,d]cycloheptene], in series [1], the TD50 came to 68 mg/kg. Further, the ED50 in series [2] (setting [6]) was 13 mg/kg.
As to `CN(C)CCCN1CC2(C)c3ccccc3CC1c1ccccc12` (stereo not shown) [Example 5, 10,11-Dihydro-N,N,5-trimethyl-10,5-(iminomethano)-5H-dibenzo[a,d]cycloheptene-12-propanamine], in series [2] (at 100 mg/g (so in the source)), the “Percent of animals which survived” value is recorded as 66%.
For the compound `c1ccc(C2(N3CCCCC3)CCCCC2)cc1` [PCP, phencyclidine, reference compound], the TD50 in series [1] was determined as 2.7 mg/kg. In series [2] (intraperitoneal injection), the “ED50 Inhibition of NMDA-Induced Lethality, I.P. (dose required to produce 50% survival rate)” value worked out at 1.9 mg/kg. Also, the “Relative potency, antagonism of NMDA-induced lethality vs ataxia (in words)” value in series [2] was “approximately equipotent”. Besides, the “Protection against cell death in cerebral ischemia models” value in series [5] is reported as “protects against cell death in cerebral ischemia models”.
Take `CC12CN(CCc3ccccc3)C(Cc3ccccc31)c1ccccc12` (stereo not shown) [Example 9, 10,11-Dihydro-5-methyl-12-(2-phenylethyl)-10,5-(iminomethano)-5H-dibenzo[a,d]cycloheptene]: in series [2] (at 20 mg/kg), the “Percent of animals which survived” value stood at 17%.
Turning to `CC12CN(CCc3ccc4ccccc4n3)C(Cc3ccccc31)c1ccccc12` (stereo not shown) [Example 7, 10,11-Dihydro-5-methyl-12-[2-(2-quinolinyl)ethyl]-10,5-(iminomethano)-5H-dibenzo[a,d]cycloheptene], the median effective dose (ED50) in series [2] (setting [6]) was above 20 mg/kg.
On to `CC12CN(CCc3ccccn3)C(Cc3ccccc31)c1ccccc12` (stereo not shown) [Example 2, 10,11-Dihydro-5-methyl-12-[2-(2-pyridinyl)ethyl]10,5-(iminomethano)-5H-dibenzo[a,d]cycloheptene], for which, in series [1], the TD50 amounted to 67 mg/kg. The “IP/PO Ratio” value in series [2] stood at 0.57. Also, the ED50 in series [2] (setting [6]) turned out to be 9.8 mg/kg.
